Experimental data taken from PMC6005348, “Betahistine Treatment in a Cat Model of Vestibular Pathology: Pharmacokinetic and Pharmacodynamic Approaches” (Frontiers in Neurology, 2018).
Like-named read-outs stand apart in the source and are kept apart here.

Key:
[1] = Plasma pharmacokinetics of betahistine and 2-PAA after oral dosing in UVN cats (LC-MS/MS, non-compartmental analysis); assay type: in vivo, cat; conditions: for AUC / Cmax / Tmax / half-life: male, plasma, po; for half-life: read-out: Betahistine t1/2 (converted)
Procedure: The experiments were performed on nine adult male UVN cats randomly allocated into three groups of cats. Three groups of three adult male cats received 0.2 mg/kg betahistine (N = 3: cats 1–3), 2 mg/kg betahistine (N = 3: cats 4–6), or 0.2 mg/kg betahistine plus 1 mg/kg selegiline (N = 3: cats 7–9). […] The samples were frozen at −80°C until analysis. Pharmacokinetic parameters of betahistine and its major metabolite 2-PAA were calculated by applying non-compartmental analysis.
Betahistine and its internal standard, betahistine-d3, were extracted by liquid/liquid extraction from plasma under alkaline conditions toward 1-butanol/isooctane, followed by a second liquid/liquid extraction step of acidic 1-butanol/isooctane toward water. Betahistine concentration in plasma was analyzed using a validated LC-MS/MS method. In brief, an API 4000 (Applied Biosystems) mass spectrometer coupled with a Symbiosis HPLC system (Sparks, Emmen, The Netherlands) was employed to analyze betahistine. Extracts (100 μl) were injected into a XTerra RP18 150 ^* 4.6 mm, 3.5 μm column (Waters, Etten-Leur, The Netherlands) and separated at 30°C under isocratic conditions using an aqueous metanol solution containing 0.5 mM ammonium formate as mobile phase. Betahistine was quantified by a tandem mass spectrometer in positive MRM. Parent daughter transition was followed for betahistine (m/z 137 > 94). Betahistine-d3 dihydrochloride was used as internal standard. Pharmacokinetic parameters of betahistine were calculated by applying non-compartmental analysis using the validated PK software WinNonLin, version 5.23 (Pharsight Corporation, Mountain View, CA, USA).
Cmax and tmax were derived directly from the plasma concentration-time curves. Linear trapezoidal rule was used to calculate AUC0-t during the part of the curve with increasing plasma concentrations. For the descending part of the curve, the log-linear trapezoidal rule was used. Calculation of the elimination half-life (t1/2) was evaluated as ln 2/kel, with kel as the slope of the terminal phase of the plasma concentration-time curve.

monoamine oxidase a/b = conditions: background statement, no reference given; cited from earlier work
[2] = cats, abstract statement, up to
[3] = 0.2 mg/kg, UVN cats, oral betahistine 0.2 mg/kg alone, day 1
[4] = 2 mg/kg, UVN cats, oral betahistine 2 mg/kg alone, day 1
[5] = 2 mg/kg, UVN cats, oral betahistine 2 mg/kg alone, day 21
[6] = UVN cats, oral betahistine 0.2 mg/kg plus selegiline 1 mg/kg, day 1
[7] = UVN cats, oral betahistine 0.2 mg/kg plus selegiline 1 mg/kg, day 21

Cmax- and AUC-values in cats compared to human ([1]; cats higher than human): 40–50 times | Increase of betahistine AUC by co administration of selegiline [1, 2]: ≤ 180 fold | Increase of betahistine Cmax by co administration of selegiline [1, 2]: up to 146 fold | AUC ([1]; 0.2 mg/kg, PK/PD table, DAY 2, BH 0.2 mg/kg, read-out: AUC (betahistine)): 3.65 ng·h/mL | Cmax ([1]; 0.2 mg/kg, PK/PD table, DAY 2, BH 0.2 mg/kg, read-out: Cmax (betahistine)): 4.11 ng/mL | Tmax [1, 3]: 0.25 h | AUC ([1]; 0.2 mg/kg, UVN cats, oral betahistine 0.2 mg/kg alone, day 1, read-out: Betahistine AUC): 3.7 ± 2.1 ng·h/mL | Cmax ([1]; 0.2 mg/kg, UVN cats, oral betahistine 0.2 mg/kg alone, day 1, read-out: Betahistine Cmax): 4.1 ± 2.9 ng/mL | half-life [1, 3]: 1.9 ± 0.7 h | Tmax ([1]; 0.2 mg/kg, UVN cats, oral betahistine 0.2 mg/kg alone, day 21): 2 h | half-life ([1]; 0.2 mg/kg, UVN cats, oral betahistine 0.2 mg/kg alone, day 21, n = 2): 4 h | AUC ([1]; 0.2 mg/kg, UVN cats, oral betahistine 0.2 mg/kg alone, day 21, read-out: Betahistine AUC): 1.5 ± 0.6 ng·h/mL | Cmax ([1]; 0.2 mg/kg, UVN cats, oral betahistine 0.2 mg/kg alone, day 21, read-out: Betahistine Cmax): 0.6 ± 0.4 ng/mL | AUC ([1]; 2 mg/kg, PK/PD table, DAY 2, BH 2.0 mg/kg, read-out: AUC (betahistine)): 26.7 ng·h/mL | Cmax ([1]; 2 mg/kg, PK/PD table, DAY 2, BH 2.0 mg/kg, read-out: Cmax (betahistine)): 54 ng/mL | Tmax [1, 4]: 0.25 h | AUC ([1]; 2 mg/kg, UVN cats, oral betahistine 2 mg/kg alone, day 1, read-out: Betahistine AUC): 19.7 ± 5 ng·h/mL | Cmax ([1]; 2 mg/kg, UVN cats, oral betahistine 2 mg/kg alone, day 1, read-out: Betahistine Cmax): 23.8 ± 11.2 ng/mL | half-life [1, 4]: 3 ± 2.6 h | Tmax [1, 5]: 0.5 h | AUC ([1]; 2 mg/kg, UVN cats, oral betahistine 2 mg/kg alone, day 21, read-out: Betahistine AUC): 51 ± 42.4 ng·h/mL | Cmax ([1]; 2 mg/kg, UVN cats, oral betahistine 2 mg/kg alone, day 21, read-out: Betahistine Cmax): 38.9 ± 34.9 ng/mL | half-life [1, 5]: 1.6 ± 0.3 h | AUC ([1]; PK/PD table, DAY 2, BH 0.2 mg/kg + Selegiline 1 mg/kg, read-out: AUC (betahistine)): 19.7 ng·h/mL | Cmax ([1]; PK/PD table, DAY 2, BH 0.2 mg/kg + Selegiline 1 mg/kg, read-out: Cmax (betahistine)): 23.8 ng/mL | Tmax [1, 6]: 0.25 h | AUC ([1]; UVN cats, oral betahistine 0.2 mg/kg plus selegiline 1 mg/kg, day 1, read-out: Betahistine AUC): 26.7 ± 24.1 ng·h/mL | half-life [1, 6]: 2.5 ± 0.5 h | Tmax [1, 7]: 1 h | AUC ([1]; UVN cats, oral betahistine 0.2 mg/kg plus selegiline 1 mg/kg, day 21, read-out: Betahistine AUC): 6.7 ± 5.1 ng·h/mL | Cmax ([1]; UVN cats, oral betahistine 0.2 mg/kg plus selegiline 1 mg/kg, day 21, read-out: Betahistine Cmax): 13.2 ± 13 ng/mL | half-life [1, 7]: 1.9 ± 0.4 h | Betahistine Cmax with versus without selegiline co-administration ([1]; repeated administration, day 21): 65 fold | Increase of betahistine AUC0−7h by selegiline 1 mg/kg ([1]; single administration, day 1): ~ 5 fold | Increase of betahistine Cmax by selegiline 1 mg/kg ([1]; single administration, day 1): ~ 5 fold
SMILES: CNCCc1ccccn1 [Betahistine, betahistine]
Share of the drug fastly metabolized by the monoamine oxidase a/b (monoamine oxidase a/b): 95%
